Earlier results on two substances are cited in US4559324A, “Polypeptide-diesters, their production and use” (Takeda Chemical Industries, Ltd., priority 1982, dated 1985).

The series has as its system Substance P. Particulars: S. Rosell and K. Folkers, TIPS, 211 (1982).

Regarding (D-Pro^2, D-Phe^7, D-Trp^9)-Substance P, the “antagonist activity against Substance P” value is “sufficiently active”.
As to (D-Pro^2, D-Trp^7, D-Trp^9)-Substance P, the “antagonist activity against Substance P” value is on record as “sufficiently active”.
